Data from the NIST ThermoML archive (doi:10.1016/j.fluid.2016.08.035).

Columns and labels:
[1] = xn = mol fraction of the nth substance listed; conditions: 101 kPa, Liquid; for viscosity: Falling or rolling sphere viscometry; for speed of sound: Sing-around technique in a fixed-path interferometer; for mass density: Vibrating tube method
[2] = molar heat capacity at constant pressure; xn = mol fraction of the nth substance listed; conditions: 101 kPa, Liquid, DSC

CC12CCC(CC1)C(C)(C)O2 [1,3,3-trimethyl-2-oxabicyclo[2.2.2]octane] + CCCCCCCC
Conditions	mass density, [1] [kg/m3]	molar heat capacity at constant pressure, [2] [J/K/mol]	speed of sound, [1] [m/s]	viscosity, [1] [mPa·s]
278.15 K, x1 = 0.1046	738.47	246.2	1263.8	0.77
278.15 K, x1 = 0.199	759.76	246.45	1270.8	0.87
278.15 K, x1 = 0.2987	782.16	246.89	1279.1	1
278.15 K, x1 = 0.4008	805.03	247.59	1288.5	1.17
278.15 K, x1 = 0.4955	826.13	248.46	1297.8	1.36
278.15 K, x1 = 0.5939	847.98	249.62	1308.4	1.62
278.15 K, x1 = 0.6971	870.82	250.95	1320.1	1.99
278.15 K, x1 = 0.7985	893.16	252.64	1332.5	2.49
278.15 K, x1 = 0.8939	914.06	254.3	1344.9	3.14
278.15 K, x1 = 1	937.25	256.14	1359.6	4.21
298.15 K, x1 = 0.1046	722.35	254.53	1180.9	0.6
298.15 K, x1 = 0.199	743.56	255.32	1188.5	0.66
298.15 K, x1 = 0.2987	765.86	256.22	1197.5	0.75
298.15 K, x1 = 0.4008	788.62	257.36	1207.3	0.86
298.15 K, x1 = 0.4955	809.62	258.59	1216.9	0.98
298.15 K, x1 = 0.5939	831.35	260.07	1227.7	1.14
298.15 K, x1 = 0.6971	854.05	261.75	1239.8	1.37
298.15 K, x1 = 0.7985	876.24	263.66	1252.4	1.65
298.15 K, x1 = 0.8939	897.03	265.57	1264.9	2.02
298.15 K, x1 = 1	920.04	267.69	1278.4	2.6
318.15 K, x1 = 0.1046	705.93	263.19	1099.7	0.48
318.15 K, x1 = 0.199	727.08	264.31	1108.1	0.53
318.15 K, x1 = 0.2987	749.32	265.53	1117.9	0.58
318.15 K, x1 = 0.4008	772.01	267	1128.3	0.66
318.15 K, x1 = 0.4955	792.93	268.51	1138.3	0.74
318.15 K, x1 = 0.5939	814.56	270.26	1149.5	0.85
318.15 K, x1 = 0.6971	837.17	272.14	1162.3	1
318.15 K, x1 = 0.7985	859.26	274.24	1175.6	1.18
318.15 K, x1 = 0.8939	879.92	276.39	1188.3	1.4
318.15 K, x1 = 1	902.84	278.65	1201	1.73
338.15 K, x1 = 0.1046	689.16	272.35	1020.2	0.41
338.15 K, x1 = 0.199	710.27	273.81	1029.6	0.44
338.15 K, x1 = 0.2987	732.46	275.37	1040.3	0.48
338.15 K, x1 = 0.4008	755.1	277.18	1051.6	0.54
338.15 K, x1 = 0.4955	775.96	278.93	1062.3	0.6
338.15 K, x1 = 0.5939	797.55	280.96	1073.8	0.68
338.15 K, x1 = 0.6971	820.1	283.13	1087.4	0.78
338.15 K, x1 = 0.7985	842.12	285.45	1101.4	0.9
338.15 K, x1 = 0.8939	862.72	287.81	1114.5	1.05
338.15 K, x1 = 1	885.57	290.33	1126.7	1.27

CC12CCC(CC1)C(C)(C)O2 [1,3,3-trimethyl-2-oxabicyclo[2.2.2]octane] + CCCCCC
Conditions	mass density, [1] [kg/m3]	molar heat capacity at constant pressure, [2] [J/K/mol]	speed of sound, [1] [m/s]	viscosity, [1] [mPa·s]
278.15 K, x1 = 0.1043	708.22	194.63	1188.8	0.47
278.15 K, x1 = 0.2069	740.59	200.97	1208.4	0.57
278.15 K, x1 = 0.2965	767.3	206.77	1225.8	0.68
278.15 K, x1 = 0.4005	796.7	213.53	1246.1	0.83
278.15 K, x1 = 0.4991	823.02	220.18	1265.3	1.03
278.15 K, x1 = 0.5999	848.56	227.2	1284.8	1.28
278.15 K, x1 = 0.6995	872.46	234.25	1304	1.66
278.15 K, x1 = 0.8005	895.28	241.41	1322.8	2.19
278.15 K, x1 = 0.8985	916.39	248.64	1341	2.93
278.15 K, x1 = 1	937.25	256.14	1359.6	4.21
298.15 K, x1 = 0.1043	690.43	201.78	1099.9	0.39
298.15 K, x1 = 0.2069	722.9	208.67	1121.2	0.46
298.15 K, x1 = 0.2965	749.7	214.95	1139.8	0.53
298.15 K, x1 = 0.4005	779.19	222.29	1161.4	0.64
298.15 K, x1 = 0.4991	805.59	229.41	1181.5	0.77
298.15 K, x1 = 0.5999	831.19	236.9	1201.8	0.93
298.15 K, x1 = 0.6995	855.13	244.43	1221.6	1.16
298.15 K, x1 = 0.8005	878	252.03	1241.3	1.48
298.15 K, x1 = 0.8985	899.14	259.73	1260	1.9
298.15 K, x1 = 1	920.04	267.69	1278.4	2.6
318.15 K, x1 = 0.1043	672.12	209.13	1012.6	0.34
318.15 K, x1 = 0.2069	704.78	216.45	1035.9	0.38
318.15 K, x1 = 0.2965	731.74	223.08	1055.9	0.43
318.15 K, x1 = 0.4005	761.37	230.81	1078.8	0.51
318.15 K, x1 = 0.4991	787.91	238.36	1100.2	0.6
318.15 K, x1 = 0.5999	813.62	246.29	1121.5	0.71
318.15 K, x1 = 0.6995	837.67	254.22	1142.2	0.86
318.15 K, x1 = 0.8005	860.63	262.24	1162.8	1.06
318.15 K, x1 = 0.8985	881.86	270.35	1182.4	1.32
318.15 K, x1 = 1	902.84	278.65	1201	1.73
338.15 K, x1 = 0.1043	653.14	216.81	926.7	0.3
338.15 K, x1 = 0.2069	685.99	224.63	952.68	0.34
338.15 K, x1 = 0.2965	713.31	231.59	974.13	0.38
338.15 K, x1 = 0.4005	743.17	239.8	998.9	0.43
338.15 K, x1 = 0.4991	769.91	247.71	1021.5	0.49
338.15 K, x1 = 0.5999	795.8	256.09	1044.1	0.57
338.15 K, x1 = 0.6995	819.99	264.46	1065.7	0.68
338.15 K, x1 = 0.8005	843.1	272.99	1087	0.82
338.15 K, x1 = 0.8985	864.46	281.61	1107.2	0.99
338.15 K, x1 = 1	885.57	290.33	1126.7	1.27
